Assay results published in patent US10023587B2, “Oxabicycloheptanes and oxabicycloheptenes, their preparation and use” (LIXTE BIOTECHNOLOGY, INC., priority 2007, dated 2018).
Entries after “also recorded” stand apart in the source; their conditions may differ. Read-outs that look alike come from different tables or passages of the source.

Columns and labels:
GBM cell line U373 = assay: Inhibition of growth of GBM cell line U373 by single agents (cell counts); type: cell-based, human; conditions: for Inhibition of growth of cell line U373 (in words): single agent, 7 days
Description: From graphic plots of the glioblastoma multiforme GBM cell line U373 (available from the National Institute of Neurological Disorders and Stroke Molecular Pathogenesis Unit, Building 10, Room 5 D37, National Institutes of Health, 900 Rockville Pike, Bethesda, Md., 20892) as a function of exposure to different doses of drug for 7 days, the concentration of each compound that inhibited brain tumor cell proliferation by 50% (IC50) was estimated.
To identify novel therapeutic targets for the treatment of glioblastoma multiforme (GBM), cantharidin analogues were evaluated for their ability to inhibit growth of glioblastoma multiforme cells. Specifically, GBM cell line U373 was used in evaluations.
The total number of cells is counted in the triplicate cultures at each dose and in controls after 7 days and the average number of cells and the standard deviation is determined.
The amount of inhibition of GBM cell growth is expressed as the proportion of the number of cells in the experimental dishes compared to the number of cells in control dishes containing only the drug vehicle and culture medium. The average percent of control is plotted and bracketed by one standard deviation calculated from the triplicate measurements.
For all cell culture experiments, cells are allowed to grow in the presence or absence of different concentrations of drug or in the presence of the vehicle used to dissolve the drug, PBS for compound 100 and DMSO for compound 102. Cell counts are done in triplicate on day 3 and day 7 and inhibition of growth is expressed as a percentage of the number of cells present in the experimental well divided by the number of cells in a control well.

NCI-H460 cells = assay: CellTiter-Glo assay, NCI-H460; type: cell-based; conditions: Homo sapiens; NCI-H460 Lung: large cell, 72 hr; read-out: IC50 (50% Inhibition of Proliferation)
Protocol: (§1) MDA-MB-231, HT-29, NCI-H460, NCI-H522, NCI-H69, GXF-209, HepG2, OVAR-3, PANC-1, DU-145, LNCAP, HL-60, K-562, and MOLT-4 cell lines were either obtained from the American Type Culture Collection (ATCC; Manassas, Va.), or from the National Cancer Institute (NCI; Frederick, Md.). RPMI-1640 media, L-glutamine dipeptide (HyQ SG-200), and HEPES were obtained from Hyclone (Logan, Utah).
(§2) All cell lines were routinely cultured twice weekly in RPMI-1640 medium supplemented with 2 mM L-glutamine dipeptide, 10 mM HEPES, and 10% FBS.
(§3) The adherent cell lines MDA-MB-231, HT-29, NCI-H460, NCI-H522, GXF-209, HepG2, OVAR-3, PANC-1, DU-145, and LNCAP cells were each seeded into two 96-well plates at 2,500 cells per well in a total volume of 50 uL and incubated in a 37° C. humidified 5% CO2 cell culture incubator overnight. The suspension cell lines NCI-H69, HL-60, K-562, and MOLT-4 were each seeded into two 96-well plates at 10,000 cell per well in a total volume of 50 uL and incubated in a 37° C. humidified 5% CO2 incubator overnight.
(§4) This was followed by making 2× stocks of the final concentrations required in RPMI-1640 medium. […]
(§5) Briefly, plates were removed from the incubator and placed on the bench at room temperatures for 30 minutes. […] Luminescence was then recorded using the PerkinElmer Microbeta scintillation and luminescence counter (Trilux).

NCI-H69 cells = assay: CellTiter-Glo assay, NCI-H69; type: cell-based; conditions: Homo sapiens; NCI-H69 Lung small cell, 72 hr; read-out: IC50 (50% Inhibition of Proliferation)
Protocol: as §1, §2, §3, §4, §5

HepG2 cells = assay: CellTiter-Glo assay, HepG2; type: cell-based; conditions: Homo sapiens; HepG2 Liver, 72 hr; read-out: IC50 (50% Inhibition of Proliferation)
Protocol: as §1, §2, §3, §4, §5

PANC-1 cells = assay: CellTiter-Glo assay, PANC-1; type: cell-based; conditions: Homo sapiens; PANC-1 Pancreas, 72 hr; read-out: IC50 (50% Inhibition of Proliferation)
Protocol: as §1, §2, §3, §4, §5

MOLT-4 cells = assay: CellTiter-Glo assay, MOLT-4; type: cell-based; conditions: Homo sapiens; MOLT-4 acute lympho, 72 hr; read-out: IC50 (50% Inhibition of Proliferation)
Protocol: as §1, §2, §3, §4, §5

CP Control = assay: Antifungal susceptibility testing (broth dilution), CP Control; type: cell-based; conditions: read-out: minimum inhibitory concentration (MIC)
Protocol: (§6) Anti-fungal testing was completed with a common lot for compounds 100 and 102.
(§7) A 10 mg portion of each powder was weighed out and added to 1 ml of sterile distilled water for compound 100 and DMSO for compound 102. The resulting concentration of […] was diluted to a working concentration of 640 μg/ml for each compound. All subsequent dilutions were also made using the respective diluents. Final testing concentrations ranged from 0.125-64 μg/ml.
(§8) A total of 23 isolates were tested to include 3 Candida albicans, 3 Candida glabrata, 3 Cryptococcus neoformans, 3 Aspergillus fumigatus, 3 Rhizopus oryzae, 3, Fusarium solani, 3 Pseudallescheria boydii, and 2 […] rubrum. All isolates were clinical isolates submitted to the Fungus Testing Laboratory for evaluation. Antifungal susceptibility testing was accomplished according to the methods outlined in the National Committee for Clinical Laboratory Standards, M-27A2, Reference Method for Broth Dilution Antifungal Susceptibility Testing of Yeasts; Approved Standard, and M38-A “Reference Method for Broth Dilution Antifungal Susceptibility Testing of Conidium-Forming Filamentous Fungi; Approved Standard”. This includes testing in RPMI-1640 with glutamine and without bicarbonate, an inoculum size of 0.5-2.5×10^3 for yeasts or 1-5×10^4 for moulds, and incubation at 35° C. for 24 and 48 hours.

F. solani = assay: Antifungal susceptibility testing (broth dilution), F. solani; type: cell-based, Fusarium solani; conditions: for MIC: Fusarium solani, read-out: minimum inhibitory concentration (MIC)
Protocol: as §6, §7, §8

[1] = system: Fourteen Human Cancer Cell Lines; assay: CellTiter-Glo assay, panel of fourteen human cancer cell lines; type: cell-based; conditions: compared with positive comparator doxorubicin
Protocol: as §1, §2, §3, §4, §5

CC(C)(C)OC(=O)N1CCN(C(=O)C2C(C(=O)O)[C@H]3CC[C@@H]2O3)CC1 (stereo in doubt) [Compound 102, 4-(3-Carboxy-7oxa-bicyclo[2.2.1]heptane-2-carbonyl)piperazine-1-carboxylic acid tert-butyl ester]
Inhibition of growth of cell line U373 (in words) (GBM cell line U373): highly potent
IC50 (NCI-H460 cells): 17.5 µM
IC50 (NCI-H69 cells): 24.6 µM
IC50 (HepG2 cells): 22.1 µM
IC50 (PANC-1 cells): 20.7 µM
IC50 (MOLT-4 cells): 5.6 µM
MIC (CP Control; 24 Hours): > 64 µg/mL
MIC (CP Control; 48 Hours): > 64 µg/mL
MIC (F. solani; isolate 07-1399, 24 Hours): > 64 µg/mL
MIC (F. solani; isolate 07-1399, 48 Hours): > 64 µg/mL
minimum inhibitory concentration (MIC) (F. solani; isolate 07-1755, 24 Hours): >64 µg/mL
minimum inhibitory concentration (MIC) (F. solani; isolate 07-1755, 48 Hours): >64 µg/mL
minimum inhibitory concentration (MIC) (F. solani; isolate 07-1867, 24 Hours): >64 µg/mL
minimum inhibitory concentration (MIC) (F. solani; isolate 07-1867, 48 Hours): >64 µg/mL
Activity against the fourteen cell lines (in words) [1]: significant activity

CN1CCN(C(=O)C2C(C(=O)O)[C@H]3CC[C@@H]2O3)CC1 (stereo partly drawn) [Compound 100, Endothall 4-Methylpiperazine Monoamide]
Inhibitory value against U373, comparison of the two compounds (GBM cell line U373; 10 μM, seven days (FIG. 8)): identical inhibitory values
IC50 (GBM cell line U373; Homo sapiens, U373 MG, 168 h, U373, exposure for 7 days, estimated from graphic plots (FIG. 1), read-out: concentration that inhibited brain tumor cell proliferation by 50% (IC50)): 3 µM
Inhibition of growth of cell line U373 (in words) (GBM cell line U373): potent inhibitor of GBMs in vitro; also recorded: Increasing dosages demonstrate a greater inhibition of growth; also recorded: modest inhibition of growth
Inhibition of growth of cell line U373 (in words) (GBM cell line U373; listed as compound 100): inhibitory activities at low micromolar concentrations; also recorded: dose dependent inhibition
IC50 (NCI-H460 cells): 24.3 µM
IC50 (NCI-H69 cells): 23.9 µM
IC50 (HepG2 cells): 31.6 µM
IC50 (PANC-1 cells): 25.1 µM
IC50 (MOLT-4 cells): 5.7 µM
MIC (CP Control; 24 Hours): > 64 µg/mL
MIC (CP Control; 48 Hours): > 64 µg/mL
MIC (F. solani; 24 h): > 64 µg/mL
MIC (F. solani; 48 h): > 64 µg/mL
minimum inhibitory concentration (MIC) (F. solani; isolate 07-1755, 24 Hours): >64 µg/mL
minimum inhibitory concentration (MIC) (F. solani; isolate 07-1755, 48 Hours): >64 µg/mL
minimum inhibitory concentration (MIC) (F. solani; isolate 07-1867, 24 Hours): >64 µg/mL
minimum inhibitory concentration (MIC) (F. solani; isolate 07-1867, 48 Hours): >64 µg/mL
Activity against the fourteen cell lines (in words) [1]: significant activity
